The values that follow come from ChEMBL document CHEMBL1201862, “PubChem BioAssay data set” (2004).

Some test systems named below: A498; BT-549; CAKI-1; DU-145; EKVX; HCC 2998; HOP-62; IGROV-1; NCI/ADR-RES; OVCAR-3; OVCAR-8; RXF 393; SF-295; SNB-75; ACHN; MDA-N; NCI-H23; NCI-H522; SNB-19.
What all share (test): DTP human tumour cell line panel, 48 h

A word on the GI50: it is the concentration giving 50% growth inhibition.

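Results reflect a 48-hour exposure of cells in 96-well plates to compound at five concentrations. GI50: concentration for 50% inhibition of growth.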 Calls of active or inactive are those of the source. No stated cut-off is given here; in the data, active = GI50 up to about 1.1 µM and inactive = higher. A value given as a limit tells only on which side of the number the result lay.

Turning to `O=C(c1ccccc1)c1c2ccccn2c2cccc[n+]12`, the GI50 was 71.8 µM (inactive) in the test with A498; > 100 µM (inactive) in the test with BT-549; > 100 µM (inactive) in the test with CAKI-1; > 100 µM (inactive) in the test on DU-145; > 100 µM (inactive) with EKVX; > 100 µM (inactive) with HCC 2998. Further, the GI50 in the test on HOP-62 is > 100 µM (inactive); in the test with IGROV-1, > 100 µM (inactive); in the test on NCI/ADR-RES it was > 100 µM (inactive); in the test with OVCAR-3, > 100 µM (inactive); with OVCAR-8, 88.5 µM (inactive); with RXF 393 it was > 100 µM (inactive). For the same compound, the GI50 with SF-295 and in the test with SNB-75 was > 100 µM (inactive) throughout.
Take `COC1=CC(=O)c2nc3ccccc3c3ccnc1c23`: the GI50 is 3.42 µM (inactive) in the test on ACHN; 14.6 µM (inactive) with BT-549; 14.3 µM (inactive) in the test on CAKI-1; 3.25 µM (inactive) in the test with DU-145; 12.6 µM (inactive) in the test with EKVX; 3.1 µM (inactive) in the test with HCC 2998. Besides, the GI50 in the test on HOP-62 was 5.74 µM (inactive); in the test with IGROV-1, 3.56 µM (inactive); in the test on MDA-N, 0.448 µM (active); in the test on NCI-H23 it was 1.35 µM (inactive); in the test on NCI-H522 it was 2.22 µM (inactive); with NCI/ADR-RES it was 3.71 µM (inactive). For the same compound, the GI50 with OVCAR-3 is 2.04 µM (inactive); in the test with OVCAR-8 it was 3.26 µM (inactive); with RXF 393, 2.61 µM (inactive); in the test on SF-295, 4.48 µM (inactive); in the test with SNB-19, 12.4 µM (inactive); in the test on SNB-75 it was 9.89 µM (inactive).
`Cc1c(/C=N/NC(=S)Nc2ccccc2)c(=O)n(-c2ccccc2)n1C`: the GI50 is 71.4 µM (inactive) with A498; > 100 µM (inactive) in the test with ACHN; > 100 µM (inactive) in the test with BT-549; 46.2 µM (inactive) in the test on CAKI-1; > 100 µM (inactive) with DU-145; > 100 µM (inactive) in the test on EKVX. Further, the GI50 in the test with HCC 2998 is > 100 µM (inactive); in the test on HOP-62, > 100 µM (inactive); in the test on IGROV-1, > 100 µM (inactive); in the test with NCI-H23, > 100 µM (inactive); with NCI/ADR-RES, 22.1 µM (inactive); in the test with OVCAR-8 it was > 100 µM (inactive). For the same compound, the GI50 in the test with RXF 393, in the test on SF-295, in the test on SNB-19 and with SNB-75 was > 100 µM (inactive) throughout.
For the compound `COc1ccc(-c2cc(-c3ccccc3)nc(N)n2)c(O)c1`, the GI50 with A498 is > 100 µM (inactive); with ACHN it was 21.1 µM (inactive); in the test with BT-549, 1.7 µM (inactive); in the test with EKVX, > 24.9 µM (inactive); in the test with HCC 2998, > 100 µM (inactive); in the test on HOP-62, > 49.5 µM (inactive). In addition, the GI50 in the test with IGROV-1 was 10.6 µM (inactive); in the test on MDA-N, 4.55 µM (inactive); in the test on NCI-H23, > 100 µM (inactive); with NCI-H522, 2.78 µM (inactive); in the test on NCI/ADR-RES it was > 52 µM (inactive); in the test on OVCAR-3, > 49.5 µM (inactive). The GI50 was 8.69 µM (inactive) with OVCAR-8; > 100 µM (inactive) in the test on RXF 393; > 86.1 µM (inactive) with SF-295; > 82.8 µM (inactive) in the test on SNB-19; 28.8 µM (inactive) with SNB-75.
As for `CC1=C(N2CC2)C(=O)C(CO)=C(N2CC2)C1=O`, the GI50 was 0.0575 µM (active) in the test with A498; < 0.01 µM (active) in the test on ACHN; 0.13 µM (active) with BT-549; < 0.01 µM (active) in the test on CAKI-1; < 0.01 µM (active) in the test with DU-145; 0.254 µM (active) in the test with EKVX. The concentration for 50% growth inhibition (GI50) with HCC 2998 is 0.0378 µM (active); in the test on HOP-62, 0.0144 µM (active); with IGROV-1 it was 0.0112 µM (active); in the test on NCI-H23 it was 0.0169 µM (active); in the test with NCI-H522, 0.013 µM (active); with NCI/ADR-RES, 0.0106 µM (active). For the same compound, the 50% growth inhibitory concentration (GI50) is 0.0203 µM (active) in the test with OVCAR-3; 0.0231 µM (active) with RXF 393; 0.013 µM (active) in the test with SF-295; 0.0927 µM (active) in the test on SNB-19; 0.031 µM (active) in the test with SNB-75.
In the case of `C=C1C(=O)C2(C)OC2(C)C1C(=O)O` (configuration not stated), the GI50 in the test with ACHN, in the test with BT-549, in the test on CAKI-1, in the test on DU-145, in the test on EKVX and with HCC 2998 was > 100 µM (inactive) throughout. The GI50 with HOP-62, in the test with IGROV-1, in the test on MDA-N, in the test with NCI-H23, in the test with NCI-H522 and in the test with NCI/ADR-RES was > 100 µM (inactive) throughout. Besides, the GI50 with OVCAR-3, in the test with OVCAR-8, in the test on RXF 393, in the test with SF-295, in the test on SNB-19 and in the test with SNB-75 was > 100 µM (inactive) in each case.
Consider `Cc1ccc2c(c1)SC1=Nc3sc4cc(C)ccc4[n+]3CN12`, for which the GI50 in the test with A498 is 11.1 µM (inactive); with ACHN, 30.2 µM (inactive); in the test with BT-549 it was 2.43 µM (inactive); in the test on DU-145 it was 24.1 µM (inactive); with EKVX, 0.687 µM (active); in the test with HCC 2998 it was 1.75 µM (inactive). In addition, the GI50 is 9.57 µM (inactive) in the test with HOP-62; 16.1 µM (inactive) in the test on IGROV-1; 1.98 µM (inactive) with NCI-H23; 1.05 µM (active) with NCI-H522; 34.4 µM (inactive) with NCI/ADR-RES; 1.01 µM (active) in the test on OVCAR-3. Further, the GI50 in the test with OVCAR-8 was 3.04 µM (inactive); in the test with RXF 393 it was 78.5 µM (inactive); in the test with SNB-19, 3.24 µM (inactive); in the test on SNB-75, 11.4 µM (inactive).
For the compound `Cc1cc2cc3c(cc2c(-c2ccc(N)cc2)n1)OCO3`, the GI50 with ACHN is 39.5 µM (inactive); in the test on BT-549, > 100 µM (inactive); in the test with CAKI-1, 26.5 µM (inactive); in the test with DU-145, 49.9 µM (inactive); in the test with EKVX, 35.4 µM (inactive); in the test on HOP-62, 57.1 µM (inactive). The GI50 in the test with IGROV-1 was 14.5 µM (inactive); with MDA-N it was 23.3 µM (inactive); in the test with NCI-H23 it was 61.2 µM (inactive); with NCI-H522, 42.5 µM (inactive); in the test with NCI/ADR-RES, 72.9 µM (inactive); in the test with OVCAR-3, 22.4 µM (inactive). Further, the GI50 in the test with OVCAR-8 was 81.7 µM (inactive); in the test on SF-295, 34.2 µM (inactive); in the test on SNB-19 it was > 100 µM (inactive).
Consider `CC(=O)C(=C(c1ccccc1)c1ccccc1)c1ccccc1`, for which the GI50 with ACHN was > 100 µM (inactive); in the test on BT-549 it was > 100 µM (inactive); with DU-145, > 100 µM (inactive); with EKVX, 15.6 µM (inactive); in the test on HCC 2998 it was > 100 µM (inactive); in the test with HOP-62 it was > 100 µM (inactive). Besides, the GI50 in the test with MDA-N, in the test on NCI-H23, with NCI-H522, in the test with NCI/ADR-RES, in the test with OVCAR-3 and with OVCAR-8 was > 100 µM (inactive) throughout. The GI50 is > 100 µM (inactive) in the test on RXF 393, > 100 µM (inactive) in the test on SF-295, > 100 µM (inactive) with SNB-19 and 87.7 µM (inactive) with SNB-75.
`COC(=O)Cc1c(C2C(CC(=O)OC)c3ccccc3N2C2OC(CO)C(O)C(O)C2O)[nH]c2ccccc12` (configuration not stated): the GI50 in the test on A498, in the test with BT-549, in the test with CAKI-1, in the test on DU-145, with EKVX and with HCC 2998 was > 100 µM (inactive) in each case. Moreover, the GI50 in the test with HOP-62, in the test with IGROV-1, in the test with MDA-N, with NCI-H23, with NCI-H522 and in the test with OVCAR-3 was > 100 µM (inactive) each time. Moreover, the GI50 in the test on SF-295, with SNB-19 and in the test on SNB-75 was > 100 µM (inactive) each time.
Regarding `CC1(C)OC[C@@H](O)[C@H](C#N)CO1`, the GI50 with A498, in the test with ACHN, in the test on BT-549, in the test on CAKI-1, in the test with DU-145 and in the test with EKVX was > 100 µM (inactive) in each case. Further, the GI50 in the test with HCC 2998, in the test with HOP-62, in the test with MDA-N, in the test with NCI-H23, with NCI-H522 and in the test with OVCAR-3 was > 100 µM (inactive) in each case. Further, the GI50 in the test on OVCAR-8, in the test on RXF 393, in the test on SF-295, in the test with SNB-19 and in the test on SNB-75 was > 100 µM (inactive) each time.
Regarding `CCOc1ccc(NCC2CC/C(=C\c3ccc(O)cc3)C2=O)cc1` (configuration not stated), the GI50 is 18.2 µM (inactive) in the test with A498; 17 µM (inactive) in the test on ACHN; 12.9 µM (inactive) in the test with BT-549; 17.1 µM (inactive) in the test with CAKI-1; 25.7 µM (inactive) in the test on DU-145; 20.5 µM (inactive) with EKVX. Also, the GI50 was 18.1 µM (inactive) in the test with HCC 2998; 37.8 µM (inactive) with HOP-62; 18.9 µM (inactive) with IGROV-1; 23.3 µM (inactive) in the test on NCI-H23; 6.14 µM (inactive) in the test on NCI-H522; 18 µM (inactive) in the test with NCI/ADR-RES. Further, the GI50 in the test on OVCAR-3 is 12.2 µM (inactive); with OVCAR-8 it was 17.9 µM (inactive); in the test on RXF 393, 18.7 µM (inactive); in the test on SF-295 it was 24.5 µM (inactive); with SNB-19, 25.5 µM (inactive); in the test on SNB-75 it was 14.5 µM (inactive).
